From patent US5028629A, “5-Lipoxygenase inhibitors” (Eli Lilly and Company, priority 1990, dated 1991) come the findings set out here.

Assay [1] deals with polymorphonuclear leukocytes (PMNs). Kind of assay: H-PMN Assay: LTB4 content of supernatant of A23187-stimulated human PMNs by radioimmunoassay. Format: cell-based. To be noted: Table II, human PMNs, calcium ionophore A23187, 37° C. for 10 minutes, LTB4 by radioimmunoassay. As for the experimental part:
Sodium citrated venous blood is drawn from normal human subjects. After centrifugation at 300 ×g for 15 minutes, the platelet-rich layer of plasma is discarded and an equal volume of Hanks' balanced salt solution (HBSS) is added to the enriched cell fraction. This platelet-depleted cell suspension is then layered on an equal volume of Ficoll-Paque. After centrifugation for 40 minutes at 300 ×g, the bottom layer containing erythrocytes and polymorphonuclear leukocytes (PMNs) is diluted with two volumes of a 0.2% methocel solution. The erythrocytes are sedimented upon standing for 15 minutes, and the supernatant containing the PMNs is aspirated and centrifuged at 300 ×g, for 5 minutes. The cell pellet is then exposed to 0.2% NaCl for 30 seconds to lyse any remaining erythrocytes, and the ionic strength of the suspension is readjusted to 0.9% with NaCl. The PMNs are recovered by centrifugation at 300 ×g for 5 minutes and are suspended in HBSS to a concentration of 2 ×10^6 cells/ml.
The test compounds are dissolved in and diluted with dimethylsulfoxide (DMSO) which also contains 2×10^-6 M of the calcium ionophore, A23187. To 1 ml of the PMN suspension, 10 μl of the DMSO solution is added, and the mixture is incubated at 37° C. for 10 minutes. The PMNs are rapidly pelleted in a microcentrifuge, and the supernatant is kept at -20° C. for future determination of LTB4 content via the radioimmunoassay.

The target in a further assay is T1, 5-lipoxygenase (Cavia porcellus, UniProt A0A286X958).
T1 construct: 0.2 ml of the supernatant obtained from the PMNL sonicate; endogenous in cells; host or cells: casein-elicited guinea pig peritoneal polymorphonuclear leukocytes (PMNL), sonicate, 30,000 x g supernatant
T1 sequence (A0A286X958 1-674): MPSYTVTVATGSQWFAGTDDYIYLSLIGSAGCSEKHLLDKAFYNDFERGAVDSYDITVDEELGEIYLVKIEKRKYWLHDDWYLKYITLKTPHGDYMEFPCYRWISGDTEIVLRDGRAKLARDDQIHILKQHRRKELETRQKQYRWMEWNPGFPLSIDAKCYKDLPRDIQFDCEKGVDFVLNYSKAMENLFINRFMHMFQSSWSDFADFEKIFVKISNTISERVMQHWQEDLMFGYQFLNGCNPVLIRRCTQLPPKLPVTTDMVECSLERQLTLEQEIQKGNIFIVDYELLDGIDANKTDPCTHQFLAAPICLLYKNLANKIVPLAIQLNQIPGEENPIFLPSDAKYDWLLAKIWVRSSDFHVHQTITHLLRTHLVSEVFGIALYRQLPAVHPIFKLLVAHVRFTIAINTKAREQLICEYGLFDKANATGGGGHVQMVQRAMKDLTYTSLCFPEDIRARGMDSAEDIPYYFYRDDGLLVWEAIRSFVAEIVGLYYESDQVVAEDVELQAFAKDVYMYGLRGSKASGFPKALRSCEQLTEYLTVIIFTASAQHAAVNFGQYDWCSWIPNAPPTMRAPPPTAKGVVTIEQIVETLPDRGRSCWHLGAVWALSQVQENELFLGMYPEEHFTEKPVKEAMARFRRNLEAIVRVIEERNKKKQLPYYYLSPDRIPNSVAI
Briefly: 5-Lipoxygenase (5-LO) Assay: 5-HETE formation in supernatant of guinea pig PMNL sonicate. The format is biochemical. As for the experimental part:
Ten milliliters of a 2% casein solution is injected intraperitoneally to guinea pigs weighing 250-300 gm. After 16-18 hours, the guinea pigs are killed by suffocation in a carbon dioxide chamber. The peritoneal cavity is infused with 70 ml of saline and 40-50 ml of the fluid is recovered from the cavity. After centrifugation, cell pellets are washed twice in Hank's balanced salt solution (HBSS) without calcium ion.
The cells are then suspended in 5 ml of sodium phosphate buffer, pH 7.1 containing 1 mM, ethylene diamine tetraacetic acid (EDTA), and 0.1% gelatin. About 20-30×10^7 cells are obtained from one guinea pig.
The PMNL suspension is disrupted by five 1/2-second pulse sonication at the setting of 3 in a Branson Sonifier, Model 350, equipped with a microtip. The sonicates are combined and centrifuged at 30,000 ×g for 10 minutes. The supernatant is kept frozen at -70° C. until use.
Enzyme activity is determined by assaying for 5-hydroxy-6,8,11,14-eicosatetraenoic acid (5-HETE) formation by first incubating 0.2 ml of the supernatant obtained from the PMNL sonicate with the test compound, 1 mM CaCl2, 2 mM ATP, and 1 mM GSH for 5 minutes at 37° C. The mixture is treated with […] ^14 C-arachidonic acid and incubated at 37° C. an additional 10 minutes. The enzyme reaction is then stopped by the addition of 10 μl of 1M citric acid and 10 μl of an alcohol solution containing 20 mg/ml each of indomethacin and butylated hydroxyanisole (BHA). The reaction mixture is spotted (50 μl) on a silica gel plate (Baker TLC plate S1250-PA-19C) and subjected to TLC in a solvent system of ethyl acetate/2,2,4-trimethylpentane/glacialacetic acid/H2 O (90:50:20:100).
The radioactivity of the arachidonic acid and its metabolites (5-HETE and LTB4) is visualized from a developed x-ray film which had been exposed to the TLC plate 1-2 days. The amount of 5-HETE formed is quantitated by scraping the silica gel area corresponding to the spot on the x-ray film, and the radioactivity determined in a Isocap/300 liquid scintillation counter (Searle Analytic, Inc.).
The percent inhibition of the formation of 5-HETE is determined for each concentration of compound tested as compared to a control experiment wherein no test compound is added. The concentration and percent values are plotted on semi log paper and the concentration in which formation of 5-HETE is inhibited by 50% (IC50) is determined by interpolation.

Where [2] appears, read: Table II, guinea pig PMNL sonicate supernatant, 14C-arachidonic acid, 37° C., read-out: 5-LO (concentration in which formation of 5-HETE is inhibited by 50%, IC50).
Where [3] appears, read: second table (Table III), known hydroxamic acid derivatives as comparison, read-out: 5-Lo (IC50).

pIC50: −log10 of the molar value. Read-outs that look alike come from different tables or passages of the source.

For “2-methylsulfonyl-4-n-hexyl-N-hydroxy-N-methylcinnamamide [Example 22]”, the pIC50 is 6.69 in assay [1] and 6.83 at 5-lipoxygenase (setting [2]).

For `C=CCCSc1ccccc1C=CC(=O)N(C)O` [Example 2], the pIC50 in assay [1] (Leukocyte, 10 min) was 7.92; at 5-lipoxygenase (setting [2]), 7.36.

For `CCCCCCSc1ccccc1C=CC(=O)N(C)O` [Example 3, 2-n-hexylthio-N-hydroxy-N-methylcinnamamide], the pIC50 in assay [1] (Leukocyte, 10 min) is 8.05; on 5-lipoxygenase (setting [2]), 7.77.

As to `CCCCc1ccccc1C=CC(=O)N(C)O` [Example 4, 2-n-butyl-N-hydroxy-N-methylcinnamamide], the pIC50 in assay [1] (Leukocyte, 10 min) was 7.12; on 5-lipoxygenase (setting [2]) it was 7.14.

On to `CN(O)C(=O)C=Cc1ccccc1SCCCC(F)(F)F` [Example 5, 2-[1-(3-trifluoromethylpropyl)thio]-N-hydroxy-N-methylcinnamamide], for which the pIC50 in assay [1] (Leukocyte, 10 min) was 7.62; at 5-lipoxygenase (setting [2]) it was 7.49.

As to `CSc1cc(CCCc2ccccc2)ccc1C=CC(=O)N(C)O` [Example 6, 2-methylthio-4-(3-phenylpropyl)-N-hydroxy-N-methylcinnamamide], the pIC50 at 5-lipoxygenase (setting [2]) is 8.15.

Consider `CCCCSc1cc(C(F)(F)F)ccc1C=CC(=O)N(C)O` [Example 7, 2-n-butylthio-4-trifluoromethyl-N-hydroxy-N-methylcinnamamide], for which, at 5-lipoxygenase (setting [2]), the pIC50 is 7.62.

In the case of `CCCCc1cc(SC)ccc1C=CC(=O)N(C)O` [Example 8, 2-n-butyl-4-methylthio-N-hydroxy-N-methylcinnamamide], on 5-lipoxygenase (setting [2]), the pIC50 was 7.64.

Regarding `CCCCCCc1ccc(S(C)(=O)=O)c(C=CC(=O)N(C)O)c1` [Example 9, 2-methylsulfonyl-5-n-hexyl-N-hydroxy-N-methylcinnamamide], the pIC50 is 6.59 in assay [1] (Leukocyte, 10 min) and 7.05 on 5-lipoxygenase (setting [2]).

As to `CCCCCCc1ccc(C=CC(=O)N(C)O)c([S+](C)[O-])c1` (stereo not shown) [Example 10, 2-methylsulfinyl-4-n-hexyl-N-hydroxy-N-methylcinnamamide], the pIC50 is 6.93 in assay [1] (Leukocyte, 10 min) and 7.01 at 5-lipoxygenase (setting [2]).

For `CCCCCCc1ccc([S+](C)[O-])c(C=CC(=O)N(C)O)c1` (stereo not shown) [Example 11, 2-methylsulfinyl-5-n-hexyl-N-hydroxy-N-methylcinnamamide], the pIC50 in assay [1] (Leukocyte, 10 min) is 7.15; at 5-lipoxygenase (setting [2]) it was 7.02.

With `CN(O)C(=O)C=Cc1ccc(S(C)(=O)=O)cc1Cc1ccccc1` [Example 12, 2-benzyl-4-methylsulfonyl-N-hydroxy-N-methylcinnamamide], the pIC50 at 5-lipoxygenase (setting [2]) is 6.16.

In the case of `CSc1ccc(C=CC(=O)N(C)O)c(Cc2ccccc2)c1` [Example 13, 2-benzyl-4-methylthio-N-hydroxy-N-methylcinnamamide], the pIC50 on 5-lipoxygenase (setting [2]) is 7.64.

Turning to `CSc1ccc(Cc2ccccc2C=CC(=O)N(C)O)cc1` [Example 14, 2-(4-methylthiobenzyl)-N-hydroxy-N-methylcinnamamide], at 5-lipoxygenase (setting [2]), the pIC50 is 7.51.

Regarding `CN(O)C(=O)C=Cc1ccccc1Cc1ccc(S(C)(=O)=O)cc1` [Example 15, 2-(4-methylsulfonylbenzyl)-N-hydroxy-N-methylcinnamamide], on 5-lipoxygenase (setting [2]), the pIC50 is 6.31.

With `CN(O)C(=O)C=Cc1ccc(CCCc2ccccc2)cc1S(C)(=O)=O` [Example 16, 2-methylsulfonyl-4-(3-phenylpropyl)-N-hydroxy-N-methylcinnamamide], the pIC50 on 5-lipoxygenase (setting [2]) was 7.13.

As to `CCCCCCc1cccc(C=CC(=O)N(C)O)c1SC` [Example 17, 2-(methylthio)-3-n-hexyl-N-hydroxy-N-methylcinnamamide], the pIC50 was 6.82 in assay [1] (Leukocyte, 10 min) and 7.23 on 5-lipoxygenase (setting [2]).

Regarding `CN(O)C(=O)C=Cc1ccccc1SC(C)(C)C` [Example 18, 2-tert-butylthio-N-hydroxy-N-methyl-cinnamamide], the pIC50 on 5-lipoxygenase (setting [2]) is 6.76.

Regarding `CN(O)C(=O)C=Cc1ccccc1-c1ccccc1` [Example 24, 2-phenyl-N-hydroxy-N-methylcinnamamide], at 5-lipoxygenase (setting [2]), the pIC50 was 6.88.

In the case of `CN(O)C(=O)C=Cc1ccccc1SCCc1ccccc1` [Example 25, 2-[1-(2-phenylethyl)thio]-N-hydroxy-N-methyl-cinnamamide], the pIC50 on 5-lipoxygenase (setting [2]) was 7.85.

On to `CN(O)C(=O)C=Cc1ccccc1SCC1CCCCC1` [Example 26, 2-cyclohexylmethylthio-N-hydroxy-N-methylcinnamamide], for which, at 5-lipoxygenase (setting [2]), the pIC50 was 7.85.

As to `CCCCSc1ccccc1C=CC(=O)N(O)C(C)C` [Example 28, 2-n-butylthio-N-hydroxy-N-isopropylcinnamamide], at 5-lipoxygenase (setting [2]), the pIC50 was 8.10.

In the case of `CN(O)C(=O)C=Cc1ccc(CCCc2ccccc2)cc1[S+](C)[O-]` (stereo not shown) [Example 32, 2-methylsulfinyl-4-(3-phenylpropyl)-N-hydroxy-N-methylcinnamamide], the pIC50 on 5-lipoxygenase (setting [2]) was 5.08.

Turning to `CCCCS(=O)(=O)c1ccccc1C=CC(=O)N(C)O` [Example 34, 2-n-butylsulfonyl-N-hydroxy-N-methylcinnamamide], the pIC50 at 5-lipoxygenase (setting [2]) was 5.96.

Take `CCCC[S+]([O-])c1ccccc1C=CC(=O)N(C)O` (stereo not shown) [Example 36, 2-n-butylsulfinyl-N-hydroxy-N-methylcinnamamide]: at 5-lipoxygenase (setting [2]), the pIC50 is 5.61.

For the molecule `CN(O)C(=O)C=Cc1ccccc1SCCCCCCc1ccccc1` [Example 39, 2-[10(6-phenylhexyl)thio]-N-hydroxy-N-methylcinnamamide], the pIC50 on 5-lipoxygenase (setting [2]) was 7.48.

Turning to `CN(O)C(=O)C=Cc1cc(CCCc2ccccc2)ccc1[S+](C)[O-]` (stereo not shown) [Example 41, 2-methylsulfinyl-5-(3-phenylpropyl)-N-hydroxy-N-methylcinnamamide], at 5-lipoxygenase (setting [2]), the pIC50 was 6.80.

`CN(O)C(=O)C=Cc1cc(CCCc2ccccc2)ccc1S(C)(=O)=O` [Example 42, 2-methylsulfonyl-5-(3-phenylpropyl)-N-hydroxy-N-methylcinnamamide]: the pIC50 at 5-lipoxygenase (setting [2]) was 6.52.

`CSc1ccccc1C(=O)N(C)O` [reference compound]: at 5-lipoxygenase (setting [3]), the pIC50 was 4.36.

`CSc1ccc(CCCc2ccccc2)cc1C(=O)N(C)O` [reference compound]: the pIC50 on 5-lipoxygenase (setting [3]) is 6.23.

Consider `CCc1ccc(CCCc2ccccc2)cc1C(=O)N(C)O` [reference compound], for which the pIC50 at 5-lipoxygenase (setting [3]) is 6.26.
